Experimental data: patent US20260245655A1, “METHODS FOR DETERMINING DRUG CANDIDATES” (MOSAIQUES DIAGNOSTICS AND THERAPEUTICS AG, priority 2023, published 2026)
Entries after “also recorded” stand apart in the source; their conditions may differ.

Experiments:
[1] = tested on: BC cell lines: non-muscle invasive (RT112) and muscle invasive (T24, BFTC905, HT1376) cells; test: in vitro screening of drug candidates on growth/proliferation of BC cell lines; format: cell-based; conditions: for proliferation rate of the BC cells (dose response curves): FIG. 2; for cell growth of BC cells: in vitro, panel of BC cell lines RT112, T24, BFTC905, HT1376
Experimental: The impact of the drug candidates onto the malignant phenotype of BC cells was assessed in vitro in a panel of multi-origin BC cell lines representing different stages during disease progression. These included non-muscle invasive (RT112) and muscle invasive (T24, BFTC905, HT1376) cells.
Accordingly, these compounds were selected for further investigation, here providing the response curves for four different BC cell lines. Representative response curves of the seven compounds are presented in FIG. 2, along with the respective IC50s. A clear impact was observed on the proliferation of the BC cells for all seven compounds.
FIG. 2. The dose response curves of cephaeline (i-ii), exemestane (iii-iv) and 1,4 chrysenequinone (v-vi) in the BC cell lines RT112, T24, HT1376 and BFTC905. The dose response curves of fluvoxamine (vii), amiodarone (viii), isradipine (ix) and amodiaquine (x) in the RT112 cells are also provided.

BFTC905 xenograft = BFTC905 xenograft mouse model; format: in vivo, NOD/SCID male mice; conditions: start three days after cell injection, observed at least 17 days, vs DMSO control
Experimental: In vivo testing of exemestane, cephaeline and 1,4 chrysenequinone was performed in xenograft mouse models. Particularly, the model was established after injecting […] BFTC905 cells subcutaneously into the tail base of NOD/SCID male mice. Male mice were selected for these experiments since males are more prone to develop BC. The treatments started three days after the injections of the cancer cells. The treatment scheme was 30 mg/kg/every 3rd day for exemestane, 5 mg/kg/daily for cephaeline and 5 mg/kg/daily for 1,4 chrysenequinone. As controls were used animals injected with DMSO diluted in PBS (at a final concentration similar to the one of the compounds).
FIG. 3. The impact of cephaeline, exemestane and 1,4 chrysenequinone in vivo in BFTC905 xenograft mouse models.

[2] = BC cell lines RT112, T24, HT1376 and BFTC905

Row | Compound | proliferation rate of the BC cells (dose response curves) ([1]; RT112 cells) | cell growth of BC cells [1] | proliferation rate of the BC cells (dose response curves) [1, 2] | impact on tumor establishment or growth (BFTC905 xenograft; 5 mg/kg/daily) | impact on tumor establishment or growth (BFTC905 xenograft; 30 mg/kg/every 3rd day)
1 | CCCCc1oc2ccccc2c1C(=O)c1cc(I)c(OCCN(CC)CC)c(I)c1 [amiodarone] | significantly decreased the proliferation rate | prevented cell growth at relatively low concentrations | – | – | –
2 | COCCCC/C(=N\OCCN)c1ccc(C(F)(F)F)cc1 [fluvoxamine] | significantly decreased the proliferation rate | prevented cell growth at relatively low concentrations | – | – | –
3 | O=C1C=CC(=O)c2c1ccc1c2ccc2ccccc21 [1,4-chrysenequinone] | – | prevented cell growth at relatively low concentrations | significantly decreased the proliferation rate | no significant impact on tumour growth | –
4 | C=C1C[C@@H]2[C@H](CC[C@]3(C)C(=O)CC[C@@H]23)[C@@]2(C)C=CC(=O)C=C12 [exemestane] | – | prevented cell growth at relatively low concentrations | significantly decreased the proliferation rate | – | clear impact on tumor establishment or growth; also recorded: significantly decreased tumor establishment or growth
5 | CCN(CC)Cc1cc(Nc2ccnc3cc(Cl)ccc23)ccc1O [amodiaquine] | significantly decreased the proliferation rate | prevented cell growth at relatively low concentrations | – | – | –
6 | COC(=O)C1=C(C)NC(C)=C(C(=O)OC(C)C)C1c1cccc2nonc12 (centres unmarked) [isradipine] | significantly decreased the proliferation rate | prevented cell growth at relatively low concentrations | – | – | –
